Earlier results, collected in patent US10188693B2, “Methods for treatment of atherosclerosis” (Stealth BioTherapeutics Corp, priority 2012, dated 2019).

How the values were obtained:
hepatitis C virus (HCV) = conditions: in vitro model of HCV infection (alone and with interferon); cited from earlier work
[1] = system: spinal cord injury in rodents; conditions: administered both pre- and post-injury; cited from earlier work

SMILES | anti-HCV effect, in words (hepatitis C virus (HCV)) | effect on spinal cord injury, in words [1]
CC(C)c1c(C(=O)Nc2ccccc2)c(-c2ccccc2)c(-c2ccc(F)cc2)n1CC[C@@H](O)C[C@@H](O)CC(=O)O [atorvastatin] | anti-HCV effect | promoting locomotion and tissue sparing, as well as reducing inflammation
CC[C@H](C)C(=O)O[C@H]1C[C@@H](C)C=C2C=C[C@H](C)[C@H](CC[C@@H]3C[C@@H](O)CC(=O)O3)[C@H]21 [lovastatin] | anti-HCV effect | 
O=C(O)C[C@H](O)C[C@H](O)/C=C/c1c(C2CC2)nc2ccccc2c1-c1ccc(F)cc1 [pitavastatin] | anti-HCV effect | 
